Measured values as given in ChEMBL document CHEMBL1649524, “Resistance selection studies comparing the activity of razupenem (PTZ601) to vancomycin and linezolid against eight methicillin-resistant and two methicillin-susceptible Staphylococcus aureus strains” (2009).
Converted amounts (≈) assume the structure as drawn.

Tests used:
Type in all cases: functional
Staphylococcus aureus [1] = experiment: Antimicrobial activity against vancomycin-resistant Staphylococcus aureus 509 by macrodilution method
Staphylococcus aureus [2] = experiment: Antimicrobial activity against methicillin-susceptible Staphylococcus aureus 543 measured on day 30 by macrodilution method
Staphylococcus aureus [3] = experiment: Antimicrobial activity against methicillin-resistant Staphylococcus aureus 525 measured on day 25 by macrodilution method; conditions: Staphylococcus aureus, 525, 600 h
Staphylococcus aureus [4] = experiment: Antimicrobial activity against vancomycin-intermediate Staphylococcus aureus 1287 measured after 10 antibiotic-free subculturing by macrodilution method
Staphylococcus aureus [5] = experiment: Antimicrobial activity against heterogeneous vancomycin-intermediate Staphylococcus aureus 873 measured on day 35 by macrodilution method
Staphylococcus aureus [6] = experiment: Antimicrobial activity against methicillin-resistant Staphylococcus aureus 547 measured on day 15 by macrodilution method; conditions: Staphylococcus aureus, 547, 360 h
Staphylococcus aureus [7] = experiment: Antimicrobial activity against vancomycin-intermediate Staphylococcus aureus 555 by macrodilution method
Staphylococcus aureus [8] = experiment: Antimicrobial activity against vancomycin-intermediate Staphylococcus aureus 1287 measured on day 25 by macrodilution method; conditions: Staphylococcus aureus, 1287, 600 h
Staphylococcus aureus [9] = experiment: Antimicrobial activity against vancomycin-resistant Staphylococcus aureus 509 measured on day 30 by macrodilution method
Staphylococcus aureus [10] = experiment: Antimicrobial activity against vancomycin-resistant Staphylococcus aureus 509 measured after 10 antibiotic-free subculturing by macrodilution method
Staphylococcus aureus [11] = experiment: Antimicrobial activity against methicillin-susceptible Staphylococcus aureus 543 measured on day 40 by macrodilution method
Staphylococcus aureus [12] = experiment: Antimicrobial activity against methicillin-susceptible Staphylococcus aureus 543 after 50 passages by macrodilution method
Staphylococcus aureus [13] = experiment: Antimicrobial activity against heterogeneous vancomycin-intermediate Staphylococcus aureus 168 measured on day 5 by macrodilution method; conditions: Staphylococcus aureus, 168, 120 h
Staphylococcus aureus [14] = experiment: Antimicrobial activity against methicillin-susceptible Staphylococcus aureus 540 measured on day 50 by macrodilution method
Staphylococcus aureus [15] = experiment: Antimicrobial activity against methicillin-susceptible Staphylococcus aureus 543 measured on day 10 by macrodilution method; conditions: Staphylococcus aureus, 543, 240 h
Staphylococcus aureus [16] = experiment: Antimicrobial activity against methicillin-resistant Staphylococcus aureus 547 measured on day 25 by macrodilution method; conditions: Staphylococcus aureus, 547, 600 h
Staphylococcus aureus [17] = experiment: Antimicrobial activity against heterogeneous vancomycin-intermediate Staphylococcus aureus 168 measured on day 20 by macrodilution method; conditions: Staphylococcus aureus, 168, 480 h
Staphylococcus aureus [18] = experiment: Antimicrobial activity against methicillin-resistant Staphylococcus aureus 547 measured on day 40 by macrodilution method
Staphylococcus aureus [19] = experiment: Antimicrobial activity against vancomycin-intermediate Staphylococcus aureus 1287 measured on day 30 by macrodilution method
Staphylococcus aureus [20] = experiment: Antimicrobial activity against methicillin-resistant Staphylococcus aureus 547 measured after 10 antibiotic-free subculturing by macrodilution method
Staphylococcus aureus [21] = experiment: Antimicrobial activity against vancomycin-intermediate Staphylococcus aureus 555 measured on day 30 by macrodilution method
Staphylococcus aureus [22] = experiment: Antimicrobial activity against methicillin-resistant Staphylococcus aureus 547 by macrodilution method
Staphylococcus aureus [23] = experiment: Antimicrobial activity against vancomycin-resistant Staphylococcus aureus 509 measured on day 20 by macrodilution method; conditions: Staphylococcus aureus, 509, 480 h
Staphylococcus aureus [24] = experiment: Antimicrobial activity against vancomycin-intermediate Staphylococcus aureus 1287 measured on day 15 by macrodilution method; conditions: Staphylococcus aureus, 1287, 360 h
Staphylococcus aureus [25] = experiment: Antimicrobial activity against heterogeneous vancomycin-intermediate Staphylococcus aureus 168 measured on day 15 by macrodilution method; conditions: Staphylococcus aureus, 168, 360 h
Staphylococcus aureus [26] = experiment: Antimicrobial activity against vancomycin-resistant Staphylococcus aureus 510 measured on day 50 by macrodilution method
Staphylococcus aureus [27] = experiment: Antimicrobial activity against methicillin-resistant Staphylococcus aureus 547 measured on day 45 by macrodilution method
Staphylococcus aureus [28] = experiment: Antimicrobial activity against vancomycin-resistant Staphylococcus aureus 509 measured on day 10 by macrodilution method; conditions: Staphylococcus aureus, 509, 240 h
Staphylococcus aureus [29] = experiment: Antimicrobial activity against vancomycin-intermediate Staphylococcus aureus 1287 after 18 passages by macrodilution method
Staphylococcus aureus [30] = experiment: Antimicrobial activity against vancomycin-intermediate Staphylococcus aureus 1287 measured on day 45 by macrodilution method
Staphylococcus aureus [31] = experiment: Antimicrobial activity against heterogeneous vancomycin-intermediate Staphylococcus aureus 873 measured on day 30 by macrodilution method
Staphylococcus aureus [32] = experiment: Antimicrobial activity against methicillin-resistant Staphylococcus aureus 525 measured on day 35 by macrodilution method
Staphylococcus aureus [33] = experiment: Antimicrobial activity against methicillin-resistant Staphylococcus aureus 525 measured on day 15 by macrodilution method; conditions: Staphylococcus aureus, 525, 360 h
Staphylococcus aureus [34] = experiment: Antimicrobial activity against heterogeneous vancomycin-intermediate Staphylococcus aureus 873 measured on day 40 by macrodilution method
Staphylococcus aureus [35] = experiment: Antimicrobial activity against vancomycin-resistant Staphylococcus aureus 509 measured on day 40 by macrodilution method
Staphylococcus aureus [36] = experiment: Antimicrobial activity against vancomycin-resistant Staphylococcus aureus 510 measured on day 35 by macrodilution method
Staphylococcus aureus [37] = experiment: Antimicrobial activity against heterogeneous vancomycin-intermediate Staphylococcus aureus 168 measured on day 45 by macrodilution method
Staphylococcus aureus [38] = experiment: Antimicrobial activity against vancomycin-resistant Staphylococcus aureus 509 measured on day 50 by macrodilution method
Staphylococcus aureus [39] = experiment: Antimicrobial activity against vancomycin-intermediate Staphylococcus aureus 1287 measured on day 40 by macrodilution method
Staphylococcus aureus [40] = experiment: Antimicrobial activity against methicillin-resistant Staphylococcus aureus 525 after 28 passages by macrodilution method
Staphylococcus aureus [41] = experiment: Antimicrobial activity against vancomycin-resistant Staphylococcus aureus 510 after 50 passages by macrodilution method
Staphylococcus aureus [42] = experiment: Antimicrobial activity against methicillin-resistant Staphylococcus aureus 547 measured on day 20 by macrodilution method; conditions: Staphylococcus aureus, 547, 480 h
Staphylococcus aureus [43] = experiment: Antimicrobial activity against methicillin-susceptible Staphylococcus aureus 540 measured on day 25 by macrodilution method; conditions: Staphylococcus aureus, 540, 600 h
Staphylococcus aureus [44] = experiment: Antimicrobial activity against heterogeneous vancomycin-intermediate Staphylococcus aureus 873 measured on day 5 by macrodilution method; conditions: Staphylococcus aureus, 873, 120 h
Staphylococcus aureus [45] = experiment: Antimicrobial activity against methicillin-resistant Staphylococcus aureus 547 measured on day 10 by macrodilution method; conditions: Staphylococcus aureus, 547, 240 h
Staphylococcus aureus [46] = experiment: Antimicrobial activity against heterogeneous vancomycin-intermediate Staphylococcus aureus 873 measured on day 10 by macrodilution method; conditions: Staphylococcus aureus, 873, 240 h
Staphylococcus aureus [47] = experiment: Antimicrobial activity against methicillin-susceptible Staphylococcus aureus 543 by macrodilution method
Staphylococcus aureus [48] = experiment: Antimicrobial activity against methicillin-resistant Staphylococcus aureus 525 measured on day 40 by macrodilution method
Staphylococcus aureus [49] = experiment: Antimicrobial activity against methicillin-susceptible Staphylococcus aureus 540 measured on day 20 by macrodilution method; conditions: Staphylococcus aureus, 540, 480 h
Staphylococcus aureus [50] = experiment: Antimicrobial activity against vancomycin-intermediate Staphylococcus aureus 555 measured on day 15 by macrodilution method; conditions: Staphylococcus aureus, 555, 360 h
Staphylococcus aureus [51] = experiment: Antimicrobial activity against vancomycin-resistant Staphylococcus aureus 509 measured on day 45 by macrodilution method

SMILES: C[C@H]1C=C(c2csc(SC3=C(C(=O)O)N4C(=O)[C@H]([C@@H](C)O)[C@H]4[C@H]3C)n2)CN1 [RAZUPENEM]
- MIC (Staphylococcus aureus [1]): 2 µg/mL (≈ 4.91 µM)
- MIC (Staphylococcus aureus [2]): 8 µg/mL (≈ 19.6 µM)
- MIC (Staphylococcus aureus [3]): 4 µg/mL (≈ 9.82 µM)
- MIC (Staphylococcus aureus [4]): 0.25 µg/mL (≈ 0.613 µM)
- MIC (Staphylococcus aureus [5]): 16 µg/mL (≈ 39.3 µM)
- MIC (Staphylococcus aureus [6]): 2 µg/mL (≈ 4.91 µM)
- MIC (Staphylococcus aureus [7]): 0.5 µg/mL (≈ 1.23 µM)
- MIC (Staphylococcus aureus [8]): 0.5 µg/mL (≈ 1.23 µM)
- MIC (Staphylococcus aureus [9]): 4 µg/mL (≈ 9.82 µM)
- MIC (Staphylococcus aureus [10]): 1 µg/mL (≈ 2.45 µM)
- MIC (Staphylococcus aureus [11]): 0.06 µg/mL (≈ 0.147 µM)
- MIC (Staphylococcus aureus [12]): 0.06 µg/mL (≈ 0.147 µM)
- MIC (Staphylococcus aureus [13]): 4 µg/mL (≈ 9.82 µM)
- MIC (Staphylococcus aureus [14]): 0.125 µg/mL (≈ 0.307 µM)
- MIC (Staphylococcus aureus [15]): 0.03 µg/mL (≈ 0.0736 µM)
- MIC (Staphylococcus aureus [16]): 4 µg/mL (≈ 9.82 µM)
- MIC (Staphylococcus aureus [17]): 8 µg/mL (≈ 19.6 µM)
- MIC (Staphylococcus aureus [18]): 16 µg/mL (≈ 39.3 µM)
- MIC (Staphylococcus aureus [19]): 16 µg/mL (≈ 39.3 µM)
- MIC (Staphylococcus aureus [20]): 0.125 µg/mL (≈ 0.307 µM)
- MIC (Staphylococcus aureus [21]): 8 µg/mL (≈ 19.6 µM)
- MIC (Staphylococcus aureus [22]): 0.5 µg/mL (≈ 1.23 µM)
- MIC (Staphylococcus aureus [23]): 4 µg/mL (≈ 9.82 µM)
- MIC (Staphylococcus aureus [24]): 0.25 µg/mL (≈ 0.613 µM)
- MIC (Staphylococcus aureus [25]): 8 µg/mL (≈ 19.6 µM)
- MIC (Staphylococcus aureus [26]): 4 µg/mL (≈ 9.82 µM)
- MIC (Staphylococcus aureus [27]): 16 µg/mL (≈ 39.3 µM)
- MIC (Staphylococcus aureus [28]): 2 µg/mL (≈ 4.91 µM)
- MIC (Staphylococcus aureus [29]): 0.5 µg/mL (≈ 1.23 µM)
- MIC (Staphylococcus aureus [30]): 2 µg/mL (≈ 4.91 µM)
- MIC (Staphylococcus aureus [31]): 8 µg/mL (≈ 19.6 µM)
- MIC (Staphylococcus aureus [32]): 16 µg/mL (≈ 39.3 µM)
- MIC (Staphylococcus aureus [33]): 4 µg/mL (≈ 9.82 µM)
- MIC (Staphylococcus aureus [34]): 16 µg/mL (≈ 39.3 µM)
- MIC (Staphylococcus aureus [35]): 4 µg/mL (≈ 9.82 µM)
- MIC (Staphylococcus aureus [36]): 4 µg/mL (≈ 9.82 µM)
- MIC (Staphylococcus aureus [37]): 8 µg/mL (≈ 19.6 µM)
- MIC (Staphylococcus aureus [38]): 4 µg/mL (≈ 9.82 µM)
- MIC (Staphylococcus aureus [39]): 2 µg/mL (≈ 4.91 µM)
- MIC (Staphylococcus aureus [40]): 16 µg/mL (≈ 39.3 µM)
- MIC (Staphylococcus aureus [41]): 4 µg/mL (≈ 9.82 µM)
- MIC (Staphylococcus aureus [42]): 4 µg/mL (≈ 9.82 µM)
- MIC (Staphylococcus aureus [43]): 0.03 µg/mL (≈ 0.0736 µM)
- MIC (Staphylococcus aureus [44]): 2 µg/mL (≈ 4.91 µM)
- MIC (Staphylococcus aureus [45]): 1 µg/mL (≈ 2.45 µM)
- MIC (Staphylococcus aureus [46]): 2 µg/mL (≈ 4.91 µM)
- MIC (Staphylococcus aureus [47]): 0.016 µg/mL (≈ 0.0393 µM)
- MIC (Staphylococcus aureus [48]): 16 µg/mL (≈ 39.3 µM)
- MIC (Staphylococcus aureus [49]): 0.03 µg/mL (≈ 0.0736 µM)
- MIC (Staphylococcus aureus [50]): 2 µg/mL (≈ 4.91 µM)
- MIC (Staphylococcus aureus [51]): 4 µg/mL (≈ 9.82 µM)
